Like-named read-outs stand apart in the source and are kept apart here.
Biological target: T1, PI3K delta (Homo sapiens, UniProt O00329)
T1 construct: for the full-length p110-d subunit are generated and fused by overlapping PCR; His tag (C); made in house; host or cells: baculovirus BV1060; Tn5 (Trichoplusia ni) or TiniPro insect cells
Test: PI3K delta kinase assay (Kinase-Glo luminescence)
Type: biochemical
In short: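 Kinase-Glo ATP-depletion luminescence using 10 nM p85(iSH2)-linker-p110δ full-length His-tag construct from insect cells, with 1 μM ATP and 10 μg/mL phosphatidylinositol in 10 mM Tris pH 7.5, 3 mM MgCl2, 50 mM NaCl, 0.05% CHAPS, 1 mM DTT. 60 min room temperature; IC50 from 4-parameter logistic fit over 8 concentrations.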

T1 sequence (O00329 with tags, fused parts or gaps limits assumed): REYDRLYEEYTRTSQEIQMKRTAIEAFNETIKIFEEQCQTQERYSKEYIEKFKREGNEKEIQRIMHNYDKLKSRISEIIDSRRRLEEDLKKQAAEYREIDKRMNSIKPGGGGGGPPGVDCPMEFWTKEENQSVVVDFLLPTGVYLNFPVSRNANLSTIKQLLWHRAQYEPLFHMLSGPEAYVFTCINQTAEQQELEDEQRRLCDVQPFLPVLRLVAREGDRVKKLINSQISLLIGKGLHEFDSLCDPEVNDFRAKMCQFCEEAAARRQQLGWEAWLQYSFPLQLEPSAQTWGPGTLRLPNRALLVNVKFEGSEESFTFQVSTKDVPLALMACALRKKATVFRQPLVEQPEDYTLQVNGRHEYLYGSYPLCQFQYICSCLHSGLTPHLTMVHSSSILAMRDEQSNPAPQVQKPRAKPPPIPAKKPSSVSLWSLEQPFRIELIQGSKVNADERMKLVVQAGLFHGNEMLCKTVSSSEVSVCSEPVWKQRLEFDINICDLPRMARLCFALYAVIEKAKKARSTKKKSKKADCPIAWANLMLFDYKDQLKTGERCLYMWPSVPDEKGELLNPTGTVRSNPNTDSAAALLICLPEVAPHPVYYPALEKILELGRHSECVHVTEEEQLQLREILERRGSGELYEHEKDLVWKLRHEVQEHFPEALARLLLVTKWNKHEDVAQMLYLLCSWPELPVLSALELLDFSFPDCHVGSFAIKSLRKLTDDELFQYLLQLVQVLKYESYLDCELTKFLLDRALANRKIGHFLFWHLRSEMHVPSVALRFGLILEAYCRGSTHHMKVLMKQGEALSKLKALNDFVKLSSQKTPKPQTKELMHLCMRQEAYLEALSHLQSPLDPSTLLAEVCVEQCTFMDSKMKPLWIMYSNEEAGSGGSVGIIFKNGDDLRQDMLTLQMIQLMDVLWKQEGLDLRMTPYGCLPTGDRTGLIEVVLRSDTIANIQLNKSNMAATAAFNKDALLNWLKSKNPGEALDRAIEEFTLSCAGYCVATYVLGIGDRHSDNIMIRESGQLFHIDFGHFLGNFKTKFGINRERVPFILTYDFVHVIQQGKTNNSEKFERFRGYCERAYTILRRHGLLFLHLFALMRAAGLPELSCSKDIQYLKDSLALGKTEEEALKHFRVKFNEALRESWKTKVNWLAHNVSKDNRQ

SMILES	IC50 (read-out: EPK_PI3Kdelta/IC50)	IC50 (read-out: PI3Kdelta/IC50)
CNc1ncc(-c2ccc3ncc4c(c3c2)n(-c2ccc(C(C)(C)O)nc2C)c(=O)n4C)cc1F [Example 31.1, 8-(5-Fluoro-6-methylamino-pyridin-3-yl)-1-[6-(1-hydroxy-1-methyl-ethyl)-2-methyl-pyridin-3-yl]-3-methyl-1,3-dihydro-imidazo[4,5-c]quinolin-2-one]	3 nM	
Cc1cccnc1-n1c(=O)n(C)c2cnc3ccc(-c4cnc(N)c(C(F)(F)F)c4)cc3c21 [Example 3.12, 8-(6-Amino-5-trifluoromethyl-pyridin-3-yl)-3-methyl-1-(3-methyl-pyridin-2-yl)-1,3-dihydro-imidazo[4,5-c]quinolin-2-one]		21 nM
COc1ncc(-c2ccc3ncc4c(c3c2)n(-c2ccc(N3CC(O)C3)nc2C)c(=O)n4C)c(OC)n1 [Example 29.6, 8-(2,4-Dimethoxy-pyrimidin-5-yl)-1-[6-(3-hydroxy-azetidin-1-yl)-2-methyl-pyridin-3-yl]-3-methyl-1,3-dihydro-imidazo[4,5-c]quinolin-2-one]	10 nM	
CNc1ncc(-c2ccc3ncc4c(c3c2)n(-c2ccc(N3CCC(O)C3)nc2C)c(=O)n4C)cn1 (stereo not shown) [Example 27.2, 1-[6-(3-Hydroxy-pyrrolidin-1-yl)-2-methyl-pyridin-3-yl]-3-methyl-8-(2-methylamino-pyrimidin-5-yl)-1,3-dihydro-imidazo[4,5-c]quinolin-2-one]	55 nM	

Reference: US20100311714A1, “1H-IMIDAZO[4,5-c]QUINOLINONE COMPOUNDS” (priority 2009, published 2010)
